Test results: US20220132852A1, “PESTICIDALLY ACTIVE HETEROCYCLIC DERIVATIVES WITH SULFUR CONTAINING SUBSTITUENTS” (SYNGENTA CROP PROTECTION AG, priority 2019, published 2022)

Key:
Format in all cases: in vivo
[1] = system: Myzus persicae (Green Peach Aphid); assay: whole plant or invertebrate; details: foliar, 144 h, application rate 200 ppm, sprayed sunflower leaf discs, mixed ages, 6 days after infestation
Protocol: Example B4: Activity Against Myzus persicae (Green Peach Aphid) Feeding/Contact Activity
Sunflower leaf discs were placed onto agar in a 24-well microtiter plate and sprayed with aqueous test solutions prepared from 10′000 ppm DMSO stock solutions. After drying, the leaf discs were infested with an aphid population of mixed ages. The samples were assessed for mortality 6 days after infestation.

[2] = system: Diabrotica balteata (Corn Root Worm); assay: Example B1: Activity against Diabrotica balteata (corn root worm), sprayed maize sprouts; details: 96 h, application rate 200 ppm, L2 larvae on sprayed maize sprouts, 4 days after infestation, read-out: effect in at least one of the two categories (mortality or growth inhibition)
Protocol: Example B1: Activity Against Diabrotica balteata (Corn Root Worm)
Maize sprouts placed onto an agar layer in 24-well microtiter plates were treated with aqueous test solutions prepared from 10′000 ppm DMSO stock solutions by spraying. After drying, the plates were infested with L2 larvae (6 to 10 per well). The samples were assessed for mortality and growth inhibition in comparison to untreated samples 4 days after infestation.

[3] = system: Plutella xylostella (Diamond Back Moth); assay: Example B3: Activity against Plutella xylostella (diamond back moth), artificial diet; details: 192 h, application rate 200 ppm, eggs on artificial diet, 8 days after infestation, read-out: effect in at least one of the two categories (mortality or growth inhibition)
Protocol: Example B3: Activity Against Plutella xylostella (Diamond Back Moth)
24-well microtiter plates with artificial diet were treated with aqueous test solutions prepared from 10′000 ppm DMSO stock solutions by pipetting. After drying, Plutella eggs were pipetted through a plastic stencil onto a gel blotting paper and the plate was closed with it. The samples were assessed for mortality and growth inhibition in comparison to untreated samples 8 days after infestation. The following compounds gave an effect of at least 80% in at least one of the two categories (mortality or growth inhibition) at an application rate of 200 ppm: P2, P4, P5, P6, P8, P9, P10, P11, P12, P14, P15, P16, P17, P18, P19, P20, P21, P22, P23, P24, P25, P26, P27, P28, P29, P30, P31, P32, P33, P34, P35, P36, P38, P39, P40, P42, P45, P46, P47, P49, P50, P51, P52.

[4] = system: Euschistus heros (Neotropical Brown Stink Bug); assay: Example B2: Activity against Euschistus heros (neotropical brown stink bug), sprayed soybean leaves; details: 120 h, application rate 200 ppm, N2 nymphs on sprayed soybean leaves, 5 days after infestation, read-out: effect in at least one of the two categories (mortality or growth inhibition)
Protocol: Example B2: Activity Against Euschistus heros (Neotropical Brown Stink Bug)
Soybean leaves on agar in 24-well microtiter plates were sprayed with aqueous test solutions prepared from 10′000 ppm DMSO stock solutions. After drying the leaves were infested with N2 nymphs. The samples were assessed for mortality and growth inhibition in comparison to untreated samples 5 days after infestation.

[5] = system: Spodoptera littoralis (Egyptian Cotton Leaf Worm); assay: Example B6: Activity against Spodoptera littoralis (Egyptian cotton leaf worm); details: foliar, 72 h, application rate 200 ppm, L1 larvae on sprayed cotton leaf discs, 3 days after infestation, read-out: control (mortality, anti-feeding effect or growth inhibition)
Protocol: Example B6: Activity Against Spodoptera littoralis (Egyptian Cotton Leaf Worm)
Cotton leaf discs were placed onto agar in 24-well microtiter plates and sprayed with aqueous test solutions prepared from 10′000 ppm DMSO stock solutions. After drying the leaf discs were infested with five L1 larvae. The samples were assessed for mortality, anti-feeding effect, and growth inhibition in comparison to untreated samples 3 days after infestation. Control of Spodoptera littoralis by a test sample is given when at least one of the categories mortality, anti-feedant effect, and growth inhibition is higher than the untreated sample.

[6] = system: Myzus persicae (Green Peach Aphid); assay: Example B5: Activity against Myzus persicae (green peach aphid), systemic activity; details: 144 h, test rate 24 ppm, roots of pea seedlings in test solution, mixed ages, 6 days
Protocol: Example B5: Activity Against Myzus persicae (Green Peach Aphid) Systemic Activity
Roots of pea seedlings infested with an aphid population of mixed ages were placed directly into aqueous test solutions prepared from 10′000 DMSO stock solutions. The samples were assessed for mortality 6 days after placing seedlings into test solutions.

CC[S+]([O-])c1cccnc1-c1cc2ccn(CC(F)(F)C(F)(F)F)c2cn1 (centres unmarked) [Compound P7, 5-(3-ethylsulfinyl-2-pyridyl)-1-(2,2,3,3,3-pentafluoropropyl) pyrrolo[2,3-c]pyridine]
≥ 80%: mortality at 200 ppm [1] | percent effect (mortality or growth inhibition) at 200 ppm [2]

CCS(=O)(=O)c1cccnc1-c1cc2ccn(CC(F)(F)C(F)(F)F)c2cn1 [Compound P8, 5-(3-ethylsulfonyl-2-pyridyl)-1-(2,2,3,3,3-pentafluoropropyl) pyrrolo[2,3-c]pyridine]
≥ 80%: mortality at 200 ppm [1] | percent effect (mortality or growth inhibition) at 200 ppm [3] | percent effect (mortality or growth inhibition) at 200 ppm [4] | percent effect (mortality or growth inhibition) at 200 ppm [2] | percent control (mortality, anti-feedant effect or growth inhibition) at 200 ppm [5]

CCS(=O)(=O)c1ccc(NC)nc1-c1cc2cnn(CC(F)(F)C(F)(F)F)c2cn1 [Compound P14, 5-ethylsulfonyl-N-methyl-6-[1-(2,2,3,3,3-pentafluoropropyl)pyrazolo[3,4-c]pyridin-5-yl]pyridin-2-amine]
≥ 80%: mortality at 200 ppm [1] | percent effect (mortality or growth inhibition) at 200 ppm [3] | percent effect (mortality or growth inhibition) at 200 ppm [4] | percent effect (mortality or growth inhibition) at 200 ppm [2] | percent control (mortality, anti-feedant effect or growth inhibition) at 200 ppm [5]

CCS(=O)(=O)c1ccc(N(C)C(=O)C2CC2)nc1-c1cc2cnn(CC(F)(F)C(F)(F)F)c2cn1 [Compound P15, N-[5-ethylsulfonyl-6-[1-(2,2,3,3,3-pentafluoropropyl)pyrazolo[3,4-c]pyridin-5-yl]-2-pyridyl]-N-methyl-cyclopropane-carboxamide]
≥ 80%: mortality at 200 ppm [1] | percent effect (mortality or growth inhibition) at 200 ppm [3] | percent effect (mortality or growth inhibition) at 200 ppm [4] | percent effect (mortality or growth inhibition) at 200 ppm [2] | percent control (mortality, anti-feedant effect or growth inhibition) at 200 ppm [5]

CCS(=O)(=O)c1cc(N(C)C(C)=O)cnc1-c1cc2ccn(CC(F)(F)C(F)(F)F)c2cn1 [Compound P16, N-[5-ethylsulfonyl-6-[1-(2,2,3,3,3-pentafluoropropyl)pyrrolo[2,3-c]pyridin-5-yl]-3-pyridyl]-N-methyl-acetamide]
≥ 80%: mortality at 200 ppm [1] | mortality at 24 ppm [6] | percent effect (mortality or growth inhibition) at 200 ppm [3] | percent effect (mortality or growth inhibition) at 200 ppm [2] | percent control (mortality, anti-feedant effect or growth inhibition) at 200 ppm [5]

CCS(=O)(=O)c1cc(Oc2ccccn2)cnc1-c1cc2ccn(CC(F)(F)C(F)(F)F)c2cn1 [Compound P17, 5-[3-ethylsulfonyl-5-(2-pyridyloxy)-2-pyridyl]-1-(2,2,3,3,3-pentafluoropropyl) pyrrolo[2,3-c]pyridine]
≥ 80%: mortality at 200 ppm [1] | percent effect (mortality or growth inhibition) at 200 ppm [3] | percent effect (mortality or growth inhibition) at 200 ppm [4] | percent effect (mortality or growth inhibition) at 200 ppm [2] | percent control (mortality, anti-feedant effect or growth inhibition) at 200 ppm [5]

CCS(=O)(=O)c1cc(Oc2ccccn2)cnc1-c1cc2cnn(CC(F)(F)C(F)(F)F)c2cn1 [Compound P21]
≥ 80%: mortality at 200 ppm [1] | percent effect (mortality or growth inhibition) at 200 ppm [3] | percent effect (mortality or growth inhibition) at 200 ppm [4] | percent effect (mortality or growth inhibition) at 200 ppm [2] | percent control (mortality, anti-feedant effect or growth inhibition) at 200 ppm [5]

CCS(=O)(=O)c1ccc(-n2cncn2)nc1-c1cc2cnn(CC(F)(F)C(F)(F)F)c2cn1 [Compound P22, 5-[3-ethylsulfonyl-6-(1,2,4-triazol-1-yl)-2-pyridyl]-1-(2,2,3,3,3-pentafluoropropyl) pyrazolo[3,4-c] pyridine]
≥ 80%: mortality at 200 ppm [1] | percent effect (mortality or growth inhibition) at 200 ppm [3] | percent effect (mortality or growth inhibition) at 200 ppm [4] | percent effect (mortality or growth inhibition) at 200 ppm [2] | percent control (mortality, anti-feedant effect or growth inhibition) at 200 ppm [5]

CCS(=O)(=O)c1cc(C2(C#N)CC2)cnc1-c1cc2ccn(CC(F)(F)C(F)(F)F)c2cn1 [Compound P23, 1-[5-ethylsulfonyl-6-[1-(2,2,3,3,3-pentafluoropropyl)pyrrolo[2,3-c]pyridin-5-yl]-3-pyridyl] cyclopropane-carbonitrile]
≥ 80%: mortality at 200 ppm [1] | percent effect (mortality or growth inhibition) at 200 ppm [3] | percent effect (mortality or growth inhibition) at 200 ppm [4] | percent effect (mortality or growth inhibition) at 200 ppm [2] | percent control (mortality, anti-feedant effect or growth inhibition) at 200 ppm [5]

CCS(=O)(=O)c1ccc(NC)nc1-c1cc2ccn(CC(F)(F)C(F)(F)F)c2cn1 [Compound P24, 5-ethylsulfonyl-N-methyl-6-[1-(2,2,3,3,3-pentafluoropropyl)pyrrolo[2,3-c]pyridin-5-yl]pyridin-2-amine]
≥ 80%: mortality at 200 ppm [1] | percent effect (mortality or growth inhibition) at 200 ppm [3] | percent effect (mortality or growth inhibition) at 200 ppm [4] | percent effect (mortality or growth inhibition) at 200 ppm [2] | percent control (mortality, anti-feedant effect or growth inhibition) at 200 ppm [5]

CCS(=O)(=O)c1ccc(N2CCOC2=O)nc1-c1cc2cnn(CC(F)(F)C(F)(F)F)c2cn1 [Compound P27, 3-[5-ethylsulfonyl-6-[1-(2,2,3,3,3-pentafluoropropyl)pyrazolo[3,4-c]pyridin-5-yl]-2-pyridyl]oxazolidin-2-one]
≥ 80%: mortality at 200 ppm [1] | percent effect (mortality or growth inhibition) at 200 ppm [3] | percent control (mortality, anti-feedant effect or growth inhibition) at 200 ppm [5]

CCS(=O)(=O)c1ccc(-n2cncn2)nc1-c1cc2ncn(CC(F)(F)C(F)(F)F)c2cn1 [Compound P32, 6-[3-ethylsulfonyl-6-(1,2,4-triazol-1-yl)-2-pyridyl]-3-(2,2,3,3,3-pentafluoropropyl)imidazo[4,5-c]pyridine]
≥ 80%: mortality at 200 ppm [1] | percent effect (mortality or growth inhibition) at 200 ppm [3] | percent effect (mortality or growth inhibition) at 200 ppm [4] | percent effect (mortality or growth inhibition) at 200 ppm [2]

CCS(=O)(=O)c1ccc(N(C)C(=O)NC)nc1-c1cc2cnn(CC(F)(F)C(F)(F)F)c2cn1 [Compound P33, 1-[5-ethylsulfonyl-6-[1-(2,2,3,3,3-pentafluoropropyl)pyrazolo[3,4-c]pyridin-5-yl]-2-pyridyl]-1,3-dimethyl-urea]
≥ 80%: mortality at 200 ppm [1] | percent effect (mortality or growth inhibition) at 200 ppm [3] | percent effect (mortality or growth inhibition) at 200 ppm [4] | percent effect (mortality or growth inhibition) at 200 ppm [2] | percent control (mortality, anti-feedant effect or growth inhibition) at 200 ppm [5]

CCSc1cccnc1-c1cc2ncn(CC(F)(F)C(F)(F)F)c2cn1 [Compound P44, 6-(3-ethylsulfanyl-2-pyridyl)-3-(2,2,3,3,3-pentafluoropropyl) imidazo[4,5-c]pyridine]
≥ 80%: mortality at 200 ppm [1] | mortality at 24 ppm [6]

CCS(=O)(=O)c1cc(-n2ccc(Cl)n2)cnc1-c1cc2cnn(CC(F)(F)C(F)(F)F)c2cn1 [Compound P46, 5-[5-(3-chloropyrazol-1-yl)-3-ethylsulfonyl-2-pyridyl]-1-(2,2,3,3,3-pentafluoropropyl) pyrazolo[3,4-c]pyridine]
≥ 80%: mortality at 200 ppm [1] | percent effect (mortality or growth inhibition) at 200 ppm [3] | percent effect (mortality or growth inhibition) at 200 ppm [4] | percent effect (mortality or growth inhibition) at 200 ppm [2] | percent control (mortality, anti-feedant effect or growth inhibition) at 200 ppm [5]

CCS(=O)(=O)c1cc(C2CC2)cnc1-c1cc2ncn(CC(F)(F)C(F)(F)F)c2cn1 [Compound P52, 6-(5-cyclopropyl-3-ethylsulfonyl-2-pyridyl)-3-(2,2,3,3,3-pentafluoropropyl) imidazo[4,5-c]pyridine]
≥ 80%: mortality at 24 ppm [6] | percent effect (mortality or growth inhibition) at 200 ppm [3] | percent effect (mortality or growth inhibition) at 200 ppm [4] | percent effect (mortality or growth inhibition) at 200 ppm [2] | percent control (mortality, anti-feedant effect or growth inhibition) at 200 ppm [5]
